Key:
[1] = Protocol 1: dissolving BIT in basic solution (exotherm peak, pH, dissolution and inherent precipitation temperature); format: physicochemical
From the text: “Protocol 1” means the following: A mixture (herein “mixture 1”) was formed as follows: 151.18 g of BIT paste (concentration 83% to 85% BIT by weight based on the weight of the paste) was mixed with basic solution and with water. The amount of basic solution was chosen to have equivalent ratio of 1:1 with BIT, and the amount of water was chosen to make Mixture 1 have the desired concentration of BIT. In some cases, the process of mixing the ingredients of Mixture 1 is exothermic; in such cases, the peak temperature reached by the mixture was recorded as the “exotherm peak.” From that mixture, a sample of 100 g (herein the “test1 batch”) was used. If some or all of the BIT was not dissolved, the test1 batch was heated (up to a maximum of 61° C.), and if there was a temperature of 61° C. or below at which all the BIT was dissolved, that temperature was recorded as the “dissolution temperature.” If BIT is all dissolved at ambient temperature, the dissolution temperature is herein taken to be 23° C. Then, the inherent precipitation temperature was observed by cooling the test 1 batch to 0° C. or to a point at which BIT precipitated, whichever temperature is higher. Then, the test 1 batch was heated to a temperature (herein “T2”) at or above the dissolution temperature; while the solution was at temperature T2, thickener was added and acid solution was added.
In some of the Examples below, Protocol 1 was performed repeatedly, using various basic solutions and various concentrations of BIT. The purpose of these repeated performances of Protocol 1 was to answer the following question: “While using a specific basic solution and using temperatures between approximately 23° C. and approximately 60° C., when making aqueous mixture (I), what range of BIT concentration is possible?”

[2] = pH 7.5 or lower; cited from earlier work

O=c1[nH]sc2ccccc12 [BIT, 1,2-Benzisothiazolin-3-one]
BIT concentration range for making aqueous mixture (I) ([1]; using ammonia): 5% | BIT concentration range for making aqueous mixture (I) ([1]; using diaminoethane): 5% | BIT concentration range for making aqueous mixture (I) ([1]; using mono-ethanolamine): 5% | solubility in water [2]: low solubility

From patent US20170339957A1, “AQUEOUS DISPERSIONS” (Rohm and Haas Company, priority 2011, published 2017)
